Results: US20080076050A1, “P-Terphenyl Compound And Photosensitve Body For Electrophotography Using Such Compound” (Hodogaya Chemical Co., Ltd., priority 2004, published 2008)

Columns and labels:
[1] = Dissolving the charge transporting agent in dichloroethane solution of polycarbonate resin for the charge transporting layer; type: physicochemical; conditions: 8.0% dichloroethane solution of polycarbonate resin (Iupilon Z)
Protocol: On the other hand, 1.5 parts of the p-terphenyl compound (compound No. 1) synthesized in Synthesis Example 1 was added as a charge transporting agent to 18.75 parts of a 8.0% dichloroethane solution of a polycarbonate resin (Iupilon Z, manufactured by Mitsubishi Engineering-Plastics Corporation), followed by application of an ultrasonic wave to completely dissolve the p-terphenyl compound. This solution was applied onto the above-mentioned charge generating layer with a wire bar, and dried at 110° C. under normal pressure for 30 minutes to form a charge transporting layer having a film thickness of 20 μm, thus preparing photoconductor No. 1.
Photoconductor No. 7 was prepared in the same manner as in Photoconductor Example 1 with the exception that the charge transporting agent used in Photoconductor Example 1 was changed to the same amount of the p-terphenyl compound (comparative compound No. 1) synthesized in Synthesis Comparative Example 1.
On the other hand, 0.9 part of the p-terphenyl compound (compound No. 1) synthesized in Synthesis Example 1 was added as a charge transporting agent to 11.25 parts of a 8.0% dichloroethane solution of a polycarbonate resin (Iupilon Z, manufactured by Mitsubishi Engineering-Plastics Corporation), followed by application of an ultrasonic wave to completely dissolve the p-terphenyl compound. […]

[2] = Solubility in organic solvents; type: physicochemical; conditions: 25° C., amount of solute (g) based on 100 ml of solvent
Protocol: The solubility of Synthesis Examples 1 to 3 and Synthesis Comparative Example 1 in organic solvents (1,2-dichloroethane, toluene and tetrahydrofuran) at 25° C. was measured. The solubility was indicated by the amount of solute (g) based on 100 ml of solvent.

Solubility of charge transporting agent when preparing the photoconductor [1] | Solubility in 1,2-Dichloroethane [2] | Solubility in Tetrahydrofuran [2] | Solubility in Toluene [2] | melting point [°C] | SMILES
insoluble | 2.3 g/100 ml | 12.4 g/100 ml | 2.2 g/100 ml | 232.5 to 233.5 | Cc1ccc(N(c2ccc(C)cc2)c2ccc(-c3ccc(-c4ccc(N(c5ccc(C)cc5)c5ccc(C)cc5)cc4)cc3)cc2)cc1 [Comparative Compound 1, N,N,N′,N′-tetra-p-tolyl-4,4″-diamino-p-terphenyl]
 | 4.2 g/100 ml | 20.8 g/100 ml | 11.0 g/100 ml | 207.4 to 208.1 | Cc1ccc(N(c2ccc(-c3ccc(-c4ccc(N(c5ccc(C)cc5)c5ccc6c(c5)CCC6)cc4)cc3)cc2)c2ccc3c(c2)CCC3)cc1 [Compound No. 1, N,N′-bisindane-5-yl-N,N′-di-p-tolyl-4,4″-diamino-p-terphenyl]
 | 3.5 g/100 ml | 18.1 g/100 ml | 9.3 g/100 ml | 180.8 to 183.4 | COc1ccc(N(c2ccccc2)c2ccc(-c3ccc(-c4ccc(N(c5ccccc5)c5ccc(OC)cc5C)cc4)cc3)cc2)c(C)c1 [Compound No. 2, N,N′-di(4-methoxy-2-methylphenyl)-N,N′-diphenyl-4,4″-diamino-p-terphenyl]
 | 30.0 or more g/100 ml | 30.0 or more g/100 ml | 30.0 or more g/100 ml | 232.6 to 233.2 | COc1ccc(N(c2ccc(-c3ccccc3)cc2)c2ccc(-c3ccc(-c4ccc(N(c5ccc(-c6ccccc6)cc5)c5ccc(OC)cc5C)cc4)cc3)cc2)c(C)c1 [Compound No. 3, N,N′-bis-biphenyl-4-yl-N,N′-di-4-methoxy-2-methylphenyl-4,4″-diamino-p-terphenyl]
 |  |  |  | 167.2 to 168.2 | Cc1ccc(N(c2ccccc2)c2ccc(-c3ccc(-c4ccc(N(c5ccccc5)c5ccc(C)cc5)cc4)cc3)cc2)cc1 [Compound No. 17, N,N′-diphenyl-N,N′-di-p-tolyl-4,4″-diamino-p-terphenyl]
